Read-outs that look alike come from different tables or passages of the source.
Test system: Mycosphaerella graminicola; Anamorph: Septoria tritici; Bayer Code SEPTTR
Assay: Leaf blotch of wheat, foliar fungicide treatment, one day protectant (1DP) or three day curative (3DC)
Format: in vivo, Septoria tritici on wheat plants (variety Yuma)
Conditions: Zymoseptoria tritici; for pest or weed control at 200 ppm / pest or weed control at 50 ppm: % disease control rating
[1] = 24 h, one day protectant (1DP), 25 ppm, rating of percent disease control, read-out: SETTTR 1DP 25 ppm
[2] = 24 h, one day protectant (1DP), rating of percent disease control, read-out: SEPTTR 1DP 100 ppm
[3] = 72 h, three day curative (3DC), 25 ppm, rating of percent disease control, read-out: SEPTTR 3DC 25 ppm
[4] = 72 h, three day curative (3DC), rating of percent disease control, read-out: SEPTTR 3DC 100 ppm
[5] = 24 h, one day protectant, 25 ppm, rating of percent disease control, read-out: SETTTR 1DP 25 ppm
[6] = 24 h, one day protectant, rating of percent disease control, read-out: SEPTTR 1DP 100 ppm
[7] = 72 h, three day curative, 25 ppm, rating of percent disease control, read-out: SEPTTR 3DC 25 ppm
[8] = 72 h, three day curative, rating of percent disease control, read-out: SEPTTR 3DC 100 ppm
[9] = 24 h, one day protectant (1DP), 25 ppm (first 1DP column), percent control rating, read-out: SETTTR 1DP 25 ppm
[10] = 24 h, one day protectant (1DP), 25 ppm as printed (second 1DP column), percent control rating, read-out: SETTTR 1DP 25 ppm
[11] = 72 h, three day curative (3DC), 25 ppm, percent control rating, read-out: SEPTTR 3DC 25 ppm
[12] = 72 h, three day curative (3DC), percent control rating, read-out: SEPTTR 3DC 100 ppm

| Compound | pest or weed control at 25 ppm [1] [%] | pest or weed control at 100 ppm [2] [%] | pest or weed control at 25 ppm [3] [%] | pest or weed control at 100 ppm [4] [%] | further results |
| --- | --- | --- | --- | --- | --- |
| Fc1cnc(OCc2ccc(C(F)(F)F)cc2)nc1NCc1cccs1 [Compound 896] |  |  |  |  | pest or weed control at 200 ppm (24 h, one day protectant): 76 to 100% |
| Cc1ccc(COc2ncc(F)c(NNc3ccccc3)n2)cc1 [Compound 766] | 0 to 25 | 51 to 75 | 0 to 25 | 26 to 50 |  |
| Fc1ccc(COc2ncc(F)c(NC3CC3)n2)cc1F [Compound 938] |  |  |  |  | pest or weed control at 200 ppm (24 h, one day protectant): 76 to 100% |
| Nc1nc(OCc2cc(Cl)cc(C(F)(F)F)c2)ncc1F [Compound 743] | 76 to 100 | 76 to 100 | 76 to 100 | 76 to 100 |  |
| Cc1ccc(CNc2nc(OCc3ccc(C)cc3)ncc2F)cc1 [Compound 717] |  |  |  |  | pest or weed control at 25 ppm [5]: 51 to 75%; pest or weed control at 100 ppm [6]: 76 to 100%; pest or weed control at 25 ppm [7]: 76 to 100%; pest or weed control at 100 ppm [8]: 76 to 100% |
| CCCCCCOc1ncc(F)c(NC(C)=O)n1 [Compound 695] |  |  |  |  | pest or weed control at 25 ppm [5]: 0 to 25%; pest or weed control at 100 ppm [6]: 76 to 100%; pest or weed control at 25 ppm [7]: 0 to 25%; pest or weed control at 100 ppm [8]: 26 to 50% |
| CC(C)(C)C(=O)OCOc1ncc(F)c(NC=O)n1 [Compound 1113] |  |  |  |  | pest or weed control at 25 ppm [9]: 76 to 100%; pest or weed control at 25 ppm [10]: 76 to 100%; pest or weed control at 25 ppm [11]: 76 to 100%; pest or weed control at 100 ppm [12]: 76 to 100% |
| CC(C)OC(=O)Oc1ncc(F)c(/N=C/N(C)C)n1 [Compound 467] | 76 to 100 | 76 to 100 | 76 to 100 | 76 to 100 |  |
| CC(C)(C)NNc1nc(OCc2ccc(F)cc2)ncc1F [Compound 775] | 0 to 25 | 0 to 25 | 0 to 25 | 0 to 25 |  |
| CCOC(=O)Nc1nc(OC(C)c2ccc(F)cc2)ncc1F (stereo not shown) [Compound 749] | 76 to 100 | 76 to 100 | 76 to 100 | 76 to 100 |  |
| COc1ccccc1COc1ncc(F)c(/N=C/N(C)C)n1 [Compound 405] | 76 to 100 | 76 to 100 | 76 to 100 | 76 to 100 |  |
| Cc1cnc(CNc2nc(OCc3cccs3)ncc2F)cn1 [Compound 822] |  |  |  |  | pest or weed control at 50 ppm (24 h, one day protectant): 26 to 50%; pest or weed control at 200 ppm (24 h, one day protectant): 76 to 100% |
| Nc1nc(OCc2ccccc2I)ncc1F [Compound 391] | 51 to 75 | 76 to 100 | 26 to 50 | 76 to 100 |  |
| Fc1cnc(OCc2cc(Cl)cc(Cl)c2)nc1NCc1ccc(Cl)cc1 [Compound 868] |  |  |  |  | pest or weed control at 50 ppm (24 h, one day protectant): 51 to 75%; pest or weed control at 200 ppm (24 h, one day protectant): 76 to 100% |
| Fc1ccc(COc2ncc(F)c(NC3CC3)n2)c(F)c1 [Compound 834] |  |  |  |  | pest or weed control at 200 ppm (24 h, one day protectant): 76 to 100% |
| C=CCOc1ncc(F)c(/N=N/c2ccccc2F)n1 [Compound 1099] |  |  |  |  | pest or weed control at 25 ppm [9]: 0 to 25%; pest or weed control at 25 ppm [10]: 0 to 25%; pest or weed control at 25 ppm [11]: 0 to 25%; pest or weed control at 100 ppm [12]: 0 to 25% |
| NNc1nc(OCc2ccc(F)cc2)ncc1F [Compound 473] | 26 to 50 | 76 to 100 | 26 to 50 | 76 to 100 |  |
| COc1ncc(F)c(NOCc2ccco2)n1 [Compound 1053] |  |  |  |  | pest or weed control at 25 ppm [9]: 0 to 25%; pest or weed control at 25 ppm [10]: 0 to 25%; pest or weed control at 25 ppm [11]: 0 to 25%; pest or weed control at 100 ppm [12]: 0 to 25% |
| COc1cccc(COc2ncc(F)c(NN)n2)c1 [Compound 44, 5-Fluoro-4-hydrazinyl-2-(3-methoxybenzyloxy)pyrimidine] |  |  |  |  | pest or weed control at 25 ppm (24 h, one day protectant (1DP), 25 ppm, percent disease control rating, read-out: SETTTR 1DP 25 ppm): 0 to 25%; pest or weed control at 100 ppm (24 h, one day protectant (1DP), percent disease control rating, read-out: SEPTTR 1DP 100 ppm): 76 to 100%; pest or weed control at 25 ppm (72 h, three day curative (3DC), 25 ppm, percent disease control rating, read-out: SEPTTR 3DC 25 ppm): 51 to 75%; pest or weed control at 100 ppm (72 h, three day curative (3DC), percent disease control rating, read-out: SEPTTR 3DC 100 ppm): 76 to 100% |
| COc1ccc(COc2ncc(F)c(NSc3ccccc3[N+](=O)[O-])n2)cc1F [Compound 200] | 0 to 25 | 26 to 50 | 0 to 25 | 0 to 25 |  |

— US9204653B2, “5-fluoro pyrimidine derivatives” (DOW AGROSCIENCES LLC, priority 2008, dated 2015)
